Experimental data from PubChem BioAssay AID1671465 (Sanford-Burnham Center for Chemical Genomics, 2021).
Active and inactive are the calls of the source.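 The calls were made as follows: active = compounds whose mean EC50 for raising GC-A cGMP output is under 66 µM; inactive = the rest.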

Each molecule was assayed against Atrial natriuretic peptide receptor 1 (Homo sapiens) (UniProt P16066) (assay: GC-A receptor activator analogs potency, SAR follow-up, HEK293 GC-A cells, cGMP TR-FRET, powder samples (AID 1671465)). Conditions: EC30 ANP.
Atrial natriuretic peptide receptor 1 (Homo sapiens), sequence (P16066 whole entry, looked up): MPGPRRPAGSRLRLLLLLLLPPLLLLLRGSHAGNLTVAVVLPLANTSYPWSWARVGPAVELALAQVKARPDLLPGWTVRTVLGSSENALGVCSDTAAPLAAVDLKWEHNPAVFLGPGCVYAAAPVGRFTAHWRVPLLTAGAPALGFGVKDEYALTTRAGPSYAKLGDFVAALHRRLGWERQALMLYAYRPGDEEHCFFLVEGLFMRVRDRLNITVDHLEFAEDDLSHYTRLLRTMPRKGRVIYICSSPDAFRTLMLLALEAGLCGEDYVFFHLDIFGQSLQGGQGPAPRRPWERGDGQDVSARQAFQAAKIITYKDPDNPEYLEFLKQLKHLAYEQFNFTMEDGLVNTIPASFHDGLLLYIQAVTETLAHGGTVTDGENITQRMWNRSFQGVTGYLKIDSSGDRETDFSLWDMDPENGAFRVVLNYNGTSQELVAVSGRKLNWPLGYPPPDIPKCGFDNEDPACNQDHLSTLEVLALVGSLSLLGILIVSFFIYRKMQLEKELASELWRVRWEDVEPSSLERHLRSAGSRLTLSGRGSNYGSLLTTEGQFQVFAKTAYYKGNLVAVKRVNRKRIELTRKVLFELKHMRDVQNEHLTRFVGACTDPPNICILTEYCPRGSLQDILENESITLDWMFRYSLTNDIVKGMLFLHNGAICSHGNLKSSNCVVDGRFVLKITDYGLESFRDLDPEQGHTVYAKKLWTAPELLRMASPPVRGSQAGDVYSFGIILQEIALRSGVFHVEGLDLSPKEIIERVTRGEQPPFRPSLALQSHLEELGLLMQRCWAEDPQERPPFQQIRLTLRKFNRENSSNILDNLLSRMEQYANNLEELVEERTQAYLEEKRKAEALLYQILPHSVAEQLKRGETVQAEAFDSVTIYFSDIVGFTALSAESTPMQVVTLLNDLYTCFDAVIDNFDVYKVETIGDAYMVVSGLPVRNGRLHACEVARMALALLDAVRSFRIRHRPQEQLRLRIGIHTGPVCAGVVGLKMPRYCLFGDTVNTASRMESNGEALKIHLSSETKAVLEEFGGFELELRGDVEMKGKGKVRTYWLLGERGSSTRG

| SMILES | EC50 |
| --- | --- |
| CN1CCCC(C(=O)Nc2nc3c(F)cc(F)cc3s2)C1 (stereo unspecified) | 1230 nM |
| CC(C)(C)C(=O)N1CCC(C(=O)Nc2nc3c(Cl)ccc(Cl)c3s2)CC1 | > 66700 nM (inactive) |
| CC(C)(C)CC(=O)N1CCCC(C(=O)Nc2nc3c(F)cc(F)cc3s2)C1 (stereo unspecified) | 3570 nM |
| O=C(Nc1nc2c(F)cc(F)cc2s1)C1CCCN(C(=O)c2ccccc2)C1 (stereo unspecified) | 3360 nM |
| CS(=O)(=O)N1CCCC(C(=O)Nc2nc3c(F)cc(F)cc3s2)C1 (stereo unspecified) | 1750 nM |
| CC(C)(C)C(=O)N1CCC(C(=O)Nc2nc3c(Cl)cccc3s2)CC1 | 2000 nM |
| O=C(Nc1nc2c(F)cc(F)cc2s1)C1CCCN(C(=O)C2CCC2)C1 (stereo unspecified) | 1810 nM |
| CC(=O)Nc1nc2c(F)cc(F)cc2s1 | 23900 nM |
| O=C(Nc1nc2c(F)cc(F)cc2s1)C1CCN(C(=O)C2CCC2)CC1 | 1720 nM |
| CC(=O)N1CCCC(C(=O)Nc2nc3c(F)cc(F)cc3s2)C1 (stereo unspecified) | 1650 nM |
| CC(C)(C)C(=O)N1CCCC(C(=O)Nc2nc3c(F)cc(F)cc3s2)C1 (stereo unspecified) | 5070 nM |
| O=C(Nc1nc2c(F)cc(F)cc2s1)C1CCCN(C(=O)Cc2ccccc2)C1 (stereo unspecified) | 2020 nM |
| O=C(Nc1nc2c(F)cc(F)cc2s1)C1CCCNC1 (stereo unspecified) | 1050 nM |
| O=C(Nc1nc2c(F)cc(F)cc2s1)C1CCCN(C(=O)C2CC2)C1 (stereo unspecified) | 1970 nM |
| O=C(Nc1nc2c(F)cc(F)cc2s1)C1CCCN(Cc2ccccc2)C1 (stereo unspecified) | 2410 nM |
| CC(C)(C)C(=O)N1CCC(C(=O)Nc2nc3c(F)cc(F)cc3s2)C1 (stereo unspecified) | 2090 nM |
| O=C(Nc1nc2c(F)cc(F)cc2s1)C1CCCCC1 | 2730 nM |
| CC(=O)N1CCC(C(=O)Nc2nc3c(F)cc(F)cc3s2)CC1 | 1150 nM |
| CN(C)CCN1CCCC(C(=O)Nc2nc3c(F)cc(F)cc3s2)C1 (stereo unspecified) | 393 nM |
| CC(C)N1CCC(C(=O)Nc2nc3c(F)cc(F)cc3s2)CC1 | 840 nM |
| CC(C)(C)OC(=O)N1CCCC(C(=O)Nc2nc3c(F)cc(F)cc3s2)C1 (stereo unspecified) | 8260 nM |
